{"source": "patent US20250019341A1", "about": "“COMPOUNDS AND METHOD OF USE THEREOF FOR TREATING BACTERIAL DISEASES” (PEKING UNIVERSITY, priority 2021, published 2025)", "key": {"[1]": {"system": "P. syringae TTSS secretion (AvrPto, Pst DC3000)", "details": "for inhibition of AvrPto secretion in Pst DC3000: supernatant protein, indicated concentrations or dilutions; for inhibition of AvrPto secretion in Pst DC3000 / abundance of AvrPto in total protein (bacteria): immunoblot; for abundance of AvrPto in total protein (bacteria): total / intracellular protein"}, "Pst DC3000": {"system": "Pst DC3000", "assay": "Growth curve of Pst DC3000 in KB medium", "assay_type": "cell-based, P. syringae", "details": "150 μM"}, "[2]": {"system": "Pst T1 effector AvrPto secretion", "assay": "AvrPto secretion of Pst T1 (immunoblot)", "assay_type": "cell-based", "details": "24 h incubation, versus untreated bacteria"}, "[3]": {"system": "Xcc8004 effector AvrAc secretion", "assay": "AvrAC protein accumulation and secretion of Xcc8004 (immunoblot)", "assay_type": "cell-based", "details": "24 h incubation, versus untreated bacteria", "experimental": "To determine AvrAC protein accumulation and secretion, Xcc8004 strain expressing HA-tagged AvrAC was cultivated at 28° C. in NYG rich medium (3 g/L yeast extract, 5 g/L peptone, 20 g/L glycerol, pH 7.0). […] Total and supernatants protein were analyzed by immunoblot by indicated antibodies."}, "[4]": {"system": "S. typhimurium effector SopF secretion", "assay": "SopF protein accumulation and secretion of Salmonella Typhimurium (immunoblot)", "assay_type": "cell-based, Salmonella Typhimurium 14028S", "details": "24 h incubation, versus untreated bacteria", "experimental": "To determine SopF protein accumulation and secretion, Salmonella Typhimurium 14028S expressing His-tagged SopF was cultivated at 37° C. in LB medium and then subcultured (1:100) in fresh 30 mL LB medium with erucamide or solvent to an OD600 of 0.2. After induction with 0.5 mM IPTG, whole cells and culture supernatants were separated by centrifugation at 5000 RPM for 10 min. The pellet was resuspended by PBS as cytoplasmic protein sample. The supernatants were filtered (0.22 μm pore-size) and then precipitated by adding trichloroacetic acid at a final concentration of 10% v/v, followed by incubation at 4° C. overnight and centrifugation (20000 g, 4° C., 30 min). The pellet was washed twice by cold acetone and analyzed by immunoblot using anti-His antibodies. For control, anti-DnaK antibodies were used."}, "Pst DC3000 hrcQ mutant": {"system": "Pst DC3000 hrcQ mutant", "assay": "Bacterial growth assay on N. benthamiana leaves", "assay_type": "in vivo", "details": "150 μM"}, "P. actinidiae": {"system": "P. actinidiae", "assay": "Bacterial canker of kiwifruit, leaf inoculation", "assay_type": "in vivo", "details": "1 mM, sprayed with bacteria on leaves"}, "[5]": {"system": "Xanthomonas oryzae pv. oryzae (Xoo) isolate P6", "assay_type": "in vivo, rice", "details": "1 mM, Xoo P6, leaf clipping, 12 days after inoculation, versus solvent"}, "R. solanacearum": {"system": "R. solanacearum", "assay_type": "in vivo, tomato", "details": "1 mM, soil drenching, versus solvent"}, "[6]": {"system": "Pst DC3000 TTSS injectisome (Hrp pilus) assembly", "assay_type": "cell-based, P. syringae", "details": "0.2 mM, TEM"}, "[7]": {"system": "Pst DC3000 injectisome structural proteins (HrpA, HrcQb)", "assay": "Injectisome structural proteins in cellular and membrane fractions (quantitative proteomics, immunoblot)", "assay_type": "cell-based, P. syringae", "details": "0.2 mM", "experimental": "To isolate the membrane fraction, bacterial cells were harvested, washed with 10 mM Tris-HCl at pH 8.0, centrifuged and the supernatants were carefully discarded. The cell pellets were then resuspended in spheroplast buffer (20 mM Tris pH 8.0, 20% sucrose, 1 mM Na-EDTA), incubated for 10 min and centrifuged. The pellets were then resuspended in ice hypotonic solution (sterile water) and the sample were incubated for 10 min on ice. After centrifugation, the resulting pellets were resuspended in 10 mM Tris-HCl at pH 8.0 and sonicated. After centrifugation, the supernatants were carefully transferred to new tubes and centrifuged again for 40 min. The pellets were washed by sterile water and centrifuged for another 40 min. The pellets were resuspended in water as membrane proteins."}, "[8]": {"system": "Pst DC3000 TTSS gene transcription (avrPto, hrpL)"}}, "note": "Read-outs that look alike come from different tables or passages of the source.", "data": [{"compound": "CCCCCCCC/C=C\\CCCCCCCCCCCC(=O)NCCO", "note": "[Compound T3SI-18, N-(2-hydroxyethyl)-13(Z)-Docosenamide]", "values": [{"measurement": "inhibition of AvrPto secretion in Pst DC3000", "setting": "[1]", "value": "effectively inhibited"}]}, {"compound": "CCCCCCCC/C=C\\CCCCCCCC(N)=O", "note": "[Compound T3SI-5]", "values": [{"measurement": "abundance of AvrPto in total protein (bacteria)", "setting": "[1]", "value": "decrease"}]}, {"compound": "CCCCCCCCCCCCCCCC(=O)NCCO", "note": "[Compound T3SI-19, N-(2-hydroxyethyl)-Hexadecanamide]", "values": [{"measurement": "inhibition of AvrPto secretion in Pst DC3000", "setting": "[1]", "value": "effectively inhibited"}]}, {"compound": "CCCCCCCC/C=C\\CCCCCCCCCCCCNC(N)=O", "note": "[Compound T3SI-14, N-(13Z)-13-Docosen-1-ylurea]", "values": [{"measurement": "inhibition of AvrPto secretion in Pst DC3000", "setting": "[1]", "value": "effectively inhibited"}]}, {"compound": "CCCCCCCCc1ccc(CCCCCCCCCCCC(N)=O)cc1", "note": "[Compound T3SI-22, 12-(4-octylphenyl)dodecanamide]", "values": [{"measurement": "abundance of AvrPto in total protein (bacteria)", "setting": "[1]", "value": "decrease"}]}, {"compound": "CCCCCCCC/C=C\\CCCCCCCCCCCC(N)=O", "note": "(single isomer, unassigned) [Compound T3SI-1, erucamide]", "values": [{"measurement": "growth of Pst DC3000", "setting": "Pst DC3000; listed as Erucamide", "value": "does not affect"}, {"measurement": "growth of Pst DC3000", "setting": "Pst DC3000; listed as erucamide", "value": "no effect"}, {"measurement": "secretion of AvrPto in Pst T1", "setting": "[2]; listed as Erucamide", "value": "inhibits"}, {"measurement": "secretion of AvrPto in Pst T1", "setting": "[2]; listed as erucamide", "value": "significantly lower"}, {"measurement": "secretion of AvrAc in Xcc8004", "setting": "[3]; listed as Erucamide", "value": "inhibits"}, {"measurement": "secretion of AvrAc in Xcc8004", "setting": "[3]; listed as erucamide", "value": "significantly lower"}, {"measurement": "secretion of SopF in S. typhimurium", "setting": "[4]; listed as Erucamide", "value": "inhibits"}, {"measurement": "secretion of SopF in S. typhimurium", "setting": "[4]; listed as erucamide", "value": "significantly lower"}, {"measurement": "Pst DC3000 hrcQ growth on N. benthamiana", "setting": "Pst DC3000 hrcQ mutant", "value": "inhibited"}, {"measurement": "bacteria population in treated plants, less than in untreated plants", "setting": "Pst DC3000 hrcQ mutant; N. benthamiana leaves, 3 days after inoculation", "value": 5, "unit": "fold"}, {"measurement": "disease symptoms caused by P. actinidiae on kiwifruit leaves", "setting": "P. actinidiae; listed as Erucamide", "value": "decreased the disease symptoms"}, {"measurement": "disease symptoms caused by P. actinidiae on kiwifruit leaves", "setting": "P. actinidiae; listed as erucamide", "value": "significantly decrease the disease symptoms"}, {"measurement": "rice bacterial blight lesion length", "setting": "[5]; listed as Erucamide", "value": "protective effects"}, {"measurement": "rice bacterial blight lesion length", "setting": "[5]; listed as erucamide", "value": "significantly shorter"}, {"measurement": "disease symptoms / virulence of R. solanacearum on tomato", "setting": "R. solanacearum; listed as Erucamide", "value": "decreased the virulence"}, {"measurement": "disease symptoms / virulence of R. solanacearum on tomato", "setting": "R. solanacearum; listed as erucamide", "value": "significantly decreased disease symptoms"}, {"measurement": "flagella production", "setting": "[6]", "value": "slightly blocked"}, {"measurement": "Hrp pilus (TTSS injectisome) assembly", "setting": "[6]; listed as Erucamide", "value": "inhibited"}, {"measurement": "Hrp pilus (TTSS injectisome) assembly", "setting": "[6]; listed as erucamide", "value": "significantly inhibited"}, {"measurement": "bacteria that had Hrp pilus", "setting": "[6]; erucamide treatment group", "value": 3.3, "unit": "%"}, {"measurement": "bacteria that had flagella", "setting": "[6]; erucamide treatment group", "value": 56.7, "unit": "%"}, {"measurement": "HrpA and HrcQb accumulation in membrane", "setting": "[7]; immunoblot", "value": "inhibited"}, {"measurement": "levels of HrpA and HrcQb in cellular protein", "setting": "[7]; immunoblot", "value": "did not change"}, {"measurement": "amount of injectisome structure proteins in total protein", "setting": "[7]; quantitative proteomics", "value": "not altered"}, {"measurement": "injectisome structure protein accumulation in membrane", "setting": "[7]; quantitative proteomics", "value": "reduced"}, {"measurement": "concentration at which inhibition of AvrPto secretion was observed", "setting": "[1]; Pst DC3000", "value": 6, "unit": "µM"}, {"measurement": "inhibition of AvrPto secretion in Pst DC3000", "setting": "[1]", "value": "effectively inhibited"}, {"measurement": "inhibition of AvrPto secretion in Pst DC3000", "setting": "[1]; listed as Erucamide", "value": "inhibits"}, {"measurement": "inhibition of AvrPto secretion in Pst DC3000", "setting": "[1]; listed as erucamide", "value": "gradually decreased with increasing concentration"}, {"measurement": "inhibition of AvrPto secretion in Pst DC3000", "setting": "[1]; listed as fraction 9", "value": "high activity"}, {"measurement": "transcription activity of TTSS genes avrPto and hrpL and house-keeping gene trp", "setting": "[8]; Pst DC3000 reporter genes, luciferase activity", "value": "does not inhibit"}]}, {"compound": "CCCCCC/C=C\\CCCCCCCC(N)=O", "note": "[Compound T3SI-6]", "values": [{"measurement": "abundance of AvrPto in total protein (bacteria)", "setting": "[1]", "value": "decrease"}]}, {"compound": "CCCCCCCCCCCCCCCC(N)=O", "note": "[Compound T3SI-9]", "values": [{"measurement": "inhibition of AvrPto secretion in Pst DC3000", "setting": "[1]", "value": "effectively inhibited"}]}, {"compound": "CCCCCCCCCCCC(N)=O", "note": "[Compound T3SI-26]", "values": [{"measurement": "inhibition of AvrPto secretion in Pst DC3000", "setting": "[1]", "value": "effectively inhibited"}]}, {"compound": "CCCCCCCC/C=C\\CCCCCCCCCCCC(=O)NCC", "note": "[Compound T3SI-16, N-ethyl-13(Z)-Docosenamide]", "values": [{"measurement": "inhibition of AvrPto secretion in Pst DC3000", "setting": "[1]", "value": "effectively inhibited"}]}, {"compound": "CCCCCCCCCCCCCC(N)=O", "note": "[Compound T3SI-25]", "values": [{"measurement": "inhibition of AvrPto secretion in Pst DC3000", "setting": "[1]", "value": "effectively inhibited"}]}, {"compound": "CCCCCCCCc1ccccc1CCCCCCCCCCCC(N)=O", "note": "[Compound T3SI-21, 12-(2-octylphenyl)dodecanamide]", "values": [{"measurement": "abundance of AvrPto in total protein (bacteria)", "setting": "[1]", "value": "decrease"}]}, {"compound": "CCCCCC/C=C\\CCCC(N)=O", "note": "[Compound T3SI-29]", "values": [{"measurement": "abundance of AvrPto in total protein (bacteria)", "setting": "[1]", "value": "decrease"}]}, {"compound": "CCCCCCCCCCCCCCCCCC(N)=O", "note": "[Compound T3SI-8]", "values": [{"measurement": "inhibition of AvrPto secretion in Pst DC3000", "setting": "[1]", "value": "effectively inhibited"}]}, {"compound": "C=CCCCCCCCCCCCC(N)=O", "note": "[Compound T3SI-12, 13-Tetradecenoic acid amide]", "values": [{"measurement": "inhibition of AvrPto secretion in Pst DC3000", "setting": "[1]", "value": "effectively inhibited"}]}, {"compound": "C[S+]([O-])CCCCN=C=S", "note": "(stereo not shown) [SFN, reference compound]", "values": [{"measurement": "P. syringae TTSS gene expression", "setting": "[8]", "value": "preferentially inhibits"}]}, {"compound": "CCCCCCCC/C=C\\CCCCCCCCCCCC(=O)NO", "note": "[Compound T3SI-24, (Z)—N-hydroxydocos-13-enamide]", "values": [{"measurement": "abundance of AvrPto in total protein (bacteria)", "setting": "[1]", "value": "decrease"}]}, {"compound": "CCCCCCCCCCCCCCCCCCCCCC(N)=O", "note": "[Compound T3SI-7]", "values": [{"measurement": "inhibition of AvrPto secretion in Pst DC3000", "setting": "[1]", "value": "effectively inhibited"}]}, {"compound": "CCCCCCCC/C=C/CCCCCCCCCCCC(N)=O", "note": "[Compound T3SI-2, (E)-13-docosenamide]", "values": [{"measurement": "inhibition of AvrPto secretion in Pst DC3000", "setting": "[1]", "value": "effectively inhibited"}]}]}
